Experimental findings from patent US11504425B2, “Amphiphilic oligodeoxynucleotide conjugates as adjuvant enhancers” (WAYNE STATE UNIVERSITY, priority 2019, dated 2022) are described below.

The data set has as its target T1, mouse TLR8 (mTLR8) (Mus musculus, UniProt P58682).
T1 construct: host or cells: HEK-Blue-mTLR8 (HEK293)
T1 sequence (P58682 24-1032): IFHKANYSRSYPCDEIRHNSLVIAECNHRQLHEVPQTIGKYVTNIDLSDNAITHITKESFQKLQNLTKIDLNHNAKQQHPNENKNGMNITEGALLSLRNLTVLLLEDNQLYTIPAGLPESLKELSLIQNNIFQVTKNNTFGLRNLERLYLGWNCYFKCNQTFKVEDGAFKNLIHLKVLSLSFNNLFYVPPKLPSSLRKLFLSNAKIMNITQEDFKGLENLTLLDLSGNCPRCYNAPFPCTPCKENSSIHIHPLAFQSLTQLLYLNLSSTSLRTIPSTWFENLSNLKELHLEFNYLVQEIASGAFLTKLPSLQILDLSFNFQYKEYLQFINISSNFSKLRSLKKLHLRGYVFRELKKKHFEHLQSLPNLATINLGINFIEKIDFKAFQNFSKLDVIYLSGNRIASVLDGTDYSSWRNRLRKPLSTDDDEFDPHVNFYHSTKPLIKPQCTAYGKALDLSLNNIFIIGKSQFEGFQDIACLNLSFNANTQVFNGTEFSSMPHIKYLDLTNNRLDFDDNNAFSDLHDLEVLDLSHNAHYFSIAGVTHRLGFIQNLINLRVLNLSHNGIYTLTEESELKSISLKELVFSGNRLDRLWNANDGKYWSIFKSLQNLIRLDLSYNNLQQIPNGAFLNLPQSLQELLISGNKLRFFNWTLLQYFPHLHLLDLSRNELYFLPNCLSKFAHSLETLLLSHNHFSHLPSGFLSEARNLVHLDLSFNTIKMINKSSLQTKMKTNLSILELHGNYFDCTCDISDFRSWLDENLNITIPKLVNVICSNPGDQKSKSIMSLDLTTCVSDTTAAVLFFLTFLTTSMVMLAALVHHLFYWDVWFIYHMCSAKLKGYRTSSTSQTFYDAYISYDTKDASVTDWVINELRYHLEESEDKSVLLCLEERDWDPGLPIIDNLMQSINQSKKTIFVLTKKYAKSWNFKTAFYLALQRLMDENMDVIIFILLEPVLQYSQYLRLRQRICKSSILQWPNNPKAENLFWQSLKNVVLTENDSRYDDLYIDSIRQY
The experiment in a line: HEK mTLR8 reporter cells NF-κB/SEAP. Type of data set: cell-based. Particulars: ligands at indicated concentrations + 1 μM ODN, 24 h. As for the experimental part:
HEK-Blue™-mTLR7, mTLR8, hTLR7, hTLR8, and RAW-Blue™ cells were purchased from InvivoGen and were used to evaluate bioactivities of lipo ODNs and TLR 7/8 ligands in vitro. All these cell lines were cultured with DMEM supplemented with 10% FBS, 1% P/S and 100 μg/mL Normocin at 37° C. with 5% CO2. […] After incubating for 24 h, SEAP levels were quantified by developing supernatants with QuantiBlue™ substrate for 1 h and reading absorption at 620 nm, following manufacturer's instructions.
Raw Blue cells which respond to both murine TLR-7 and TLR-8 are also included to assess the overall modulatory effect. half-maximal effective concentration (EC50) and potency of several classic TLR7/8 ligands were evaluated in murine TLR7 and TLR8 reporter cells.

With 5′-TTTTTTTTTTTTTTTTTTTT-3′ [T20], the “mTLR8 stimulation by IMQ, CL075, R848 in the presence of the ODN” value is recorded as “increased the potency of TLR-8 stimulation”.
